Experimental findings from ChEMBL document CHEMBL3045632, “Synthetic inhibitors of the fungal detoxifying enzyme brassinin oxidase based on the phytoalexin camalexin scaffold” (J Agric Food Chem, 2009) are described below.

Data set [1] relates to Plenodomus lingam. In words: Antifungal activity against Leptosphaeria maculans assessed as inhibition of mycelial growth at 0.10 mM relative to control. It counts as functional.
Data set [2] concerns Plenodomus lingam. Briefly: Antifungal activity against Leptosphaeria maculans assessed as inhibition of mycelial growth at 0.50 mM relative to control. The data set is classed as functional.
For data set [3], the system named is Plenodomus lingam. Briefly: Inhibition of Leptosphaeria maculans brassinin oxidase assessed as relative specific activity at 0.20 mM relative to control.
Data set [4] has as its system Plenodomus lingam. Briefly: Inhibition of Leptosphaeria maculans brassinin oxidase assessed as relative protein at 0.10 mM relative to control.
Data set [5] relates to Plenodomus lingam. Briefly: Inhibition of Leptosphaeria maculans brassinin oxidase assessed as relative specific activity at 0.10 mM relative to control.
Data set [6] has as its system Plenodomus lingam. Briefly: Inhibition of Leptosphaeria maculans brassinin oxidase assessed as relative protein at 0.20 mM relative to control.
Data set [7] deals with Plenodomus lingam. Briefly: Inhibition of Leptosphaeria maculans brassinin oxidase assessed as relative specific activity at 0.50 mM relative to control.
The subject of data set [8] is Plenodomus lingam. Briefly: Inhibition of Leptosphaeria maculans brassinin oxidase assessed as relative protein at 0.50 mM relative to control.
Data set [9] has as its system Plenodomus lingam. Briefly: Inhibition of Leptosphaeria maculans brassinin oxidase activity at 0.10 mM relative to control.
For data set [10], the system named is Plenodomus lingam. In words: Antifungal activity against Leptosphaeria maculans assessed as inhibition of mycelial growth at 0.20 mM relative to control. The data set is classed as functional.
Data set [11] has as its system Plenodomus lingam. In words: Inhibition of Leptosphaeria maculans brassinin oxidase activity at 0.30 mM relative to control.
A short description of data set [12]: Solubility of the compound at 50 mM. As to conditions: 50000 µM. It counts as physicochemical.

Molecules are shown by their SMILES.

With `Fc1ccc2[nH]cc(-c3nccs3)c2c1` [5-FLUOROCAMALEXIN], in the data set with Plenodomus lingam [1], the inhibition – broadly, the percentage by which the read-out fell short of the control – at 100 µM turned out to be 76%. The inhibition at 500 µM with Plenodomus lingam [2] was found to be 100%. The Ratio in the data set on Plenodomus lingam [3] is 4.9; in the data set with Plenodomus lingam [4] it was 0.3; in the data set with Plenodomus lingam [5], 5; in the data set on Plenodomus lingam [6], 0.23; in the data set with Plenodomus lingam [7], 7.9; with Plenodomus lingam [8], 0.19. In addition, the inhibition amounted to 47% in the data set on Plenodomus lingam [9] and 63% in the data set on Plenodomus lingam [11]. Besides, the inhibition at 200 µM in the data set with Plenodomus lingam [10] is 81%.
On to `Fc1ccc2c(-c3ccccc3)c[nH]c2c1`, for which the results for the inhibition in the data set with Plenodomus lingam [9] and in the data set on Plenodomus lingam [11] were 11% and 17%, respectively.
Take `c1ccc2c(-c3cnsc3)cccc2c1`: the inhibition in the data set on Plenodomus lingam [9] is 16%; in the data set on Plenodomus lingam [11], 21%.
For `c1ccc2cc(-c3cnsc3)ccc2c1` [2-NAPHTHALENYLISOTHIAZOLE], the inhibition at 100 µM in the data set on Plenodomus lingam [1] is 41%. In addition, the Ratio is 8.5 in the data set on Plenodomus lingam [3]; 0.26 in the data set with Plenodomus lingam [4]; 2.6 with Plenodomus lingam [5]; 0.17 with Plenodomus lingam [6]; 16.3 in the data set on Plenodomus lingam [7]; 0.16 in the data set with Plenodomus lingam [8]. Further, the solubility entry in data set [12] is on record as “Insoluble”. Moreover, the inhibition in the data set on Plenodomus lingam [9] came out at 29%; in the data set on Plenodomus lingam [11] it was 42%. Moreover, the inhibition at 200 µM in the data set on Plenodomus lingam [10] turned out to be 53%.
As for `c1ccc(-c2c[nH]c3ccccc23)cc1` [3-PHENYLINDOLE], the inhibition at 100 µM in the data set with Plenodomus lingam [1] worked out at 100%. Besides, the Ratio in the data set on Plenodomus lingam [3] amounted to 39.2; with Plenodomus lingam [4], 0.18; in the data set with Plenodomus lingam [5], 30.9; in the data set with Plenodomus lingam [6] it was 0.14; with Plenodomus lingam [7] it was 5.7; in the data set on Plenodomus lingam [8], 0.1.
Take `c1ccc2c(-c3nccs3)c[nH]c2c1` [CAMALEXIN]: the inhibition at 100 µM in the data set with Plenodomus lingam [1] was determined as 35%. Further, in the data set with Plenodomus lingam [2], the inhibition at 500 µM came out at 100%. Besides, the Ratio in the data set on Plenodomus lingam [3] is 6.9; in the data set on Plenodomus lingam [4], 0.28; with Plenodomus lingam [5], 4.5; with Plenodomus lingam [6], 0.24; in the data set on Plenodomus lingam [7] it was 2.5; in the data set on Plenodomus lingam [8], 0.1. The values for the inhibition in the data set on Plenodomus lingam [9] and in the data set with Plenodomus lingam [11] were 30% and 53%, respectively. Besides, the inhibition at 200 µM in the data set with Plenodomus lingam [10] is 65%.
`COc1ccc2[nH]cc(-c3nccs3)c2c1` [5-METHOXYCAMALEXIN]: the inhibition at 100 µM in the data set with Plenodomus lingam [1] turned out to be 60%. Also, in the data set on Plenodomus lingam [2], the inhibition at 500 µM was found to be 100%. Further, the Ratio was determined as 5.8 with Plenodomus lingam [3]; 0.28 in the data set on Plenodomus lingam [4]; 1.7 in the data set with Plenodomus lingam [5]; 0.24 in the data set on Plenodomus lingam [6]; 1.6 with Plenodomus lingam [7]; 0.13 in the data set on Plenodomus lingam [8]. The inhibition in the data set with Plenodomus lingam [9] was 51%; in the data set on Plenodomus lingam [11] it was 72%. For the same compound, the inhibition at 200 µM in the data set with Plenodomus lingam [10] was 84%.
Take `Fc1ccc2c(-c3nccs3)c[nH]c2c1` [6-FLUOROCAMALEXIN]: the inhibition at 100 µM in the data set on Plenodomus lingam [1] was 29%. Also, the inhibition at 500 µM in the data set with Plenodomus lingam [2] was determined as 83%. Also, the Ratio in the data set on Plenodomus lingam [3] amounted to 4; in the data set on Plenodomus lingam [4], 0.36; in the data set on Plenodomus lingam [5], 3.9; in the data set on Plenodomus lingam [6] it was 0.28; with Plenodomus lingam [7] it was 1.8; in the data set with Plenodomus lingam [8], 0.24. Further, the values for the inhibition in the data set on Plenodomus lingam [9] and with Plenodomus lingam [11] were 29% and 46%, respectively. Further, the inhibition at 200 µM in the data set with Plenodomus lingam [10] was determined as 47%.
`c1ccc2[nH]c(-c3cscn3)nc2c1` [THIABENDAZOLE]: the inhibition at 100 µM with Plenodomus lingam [1] is 100%. Further, the Ratio is 4.1 in the data set with Plenodomus lingam [3]; 0.35 with Plenodomus lingam [4]; 1.9 with Plenodomus lingam [5]; 0.28 with Plenodomus lingam [6]; 4.9 in the data set with Plenodomus lingam [7]; 0.06 in the data set with Plenodomus lingam [8]. The results for the inhibition with Plenodomus lingam [9] and in the data set with Plenodomus lingam [11] were 16% and 25%, respectively.
On to `COc1ccc2c(-c3nccs3)c[nH]c2c1` [6-METHOXYCAMALEXIN], for which, in the data set with Plenodomus lingam [1], the inhibition at 100 µM is 17%. Moreover, in the data set on Plenodomus lingam [2], the inhibition at 500 µM came to 100%. For the same compound, the Ratio in the data set with Plenodomus lingam [3] was found to be 3.7; with Plenodomus lingam [4] it was 0.27; in the data set on Plenodomus lingam [5], 2.3; with Plenodomus lingam [6], 0.16; with Plenodomus lingam [7], 4; with Plenodomus lingam [8], 0.11. Further, the inhibition is 41% in the data set on Plenodomus lingam [9] and 63% in the data set with Plenodomus lingam [11]. Further, the inhibition at 200 µM in the data set on Plenodomus lingam [10] was determined as 78%.
